Publication PMC4669411 (FEBS Open Bio, 2015)

Key:
PputG6PDH-1 [1] = target: T1, PputG6PDH-1 (Pseudomonas putida, UniProt Q88P31); assay: progress curves at […] nm, product inhibition, global fit; format: biochemical
T1 sequence (Q88P31 1-489): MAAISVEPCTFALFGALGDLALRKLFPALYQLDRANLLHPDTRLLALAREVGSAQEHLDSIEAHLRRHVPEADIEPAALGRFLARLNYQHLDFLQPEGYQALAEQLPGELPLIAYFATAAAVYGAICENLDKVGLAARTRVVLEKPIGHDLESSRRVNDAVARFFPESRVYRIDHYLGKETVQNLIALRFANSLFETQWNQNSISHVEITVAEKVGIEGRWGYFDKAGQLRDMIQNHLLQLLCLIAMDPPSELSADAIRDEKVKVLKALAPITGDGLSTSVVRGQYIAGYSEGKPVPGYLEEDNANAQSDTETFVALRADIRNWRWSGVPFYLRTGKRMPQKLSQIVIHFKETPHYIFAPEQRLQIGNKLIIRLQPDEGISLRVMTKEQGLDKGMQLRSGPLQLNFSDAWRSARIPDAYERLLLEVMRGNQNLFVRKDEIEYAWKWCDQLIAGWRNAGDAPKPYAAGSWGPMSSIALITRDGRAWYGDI

PputG6PDH-1 [2] = target: T1, PputG6PDH-1; assay: initial rates, NAD; format: biochemical

Ki (PputG6PDH-1 [1]) [µM] | Ki (PputG6PDH-1 [2]) [µM] | SMILES
480 ± 7 | – | NC(=O)C1=CN([C@@H]2O[C@H](COP(=O)(O)OP(=O)(O)OC[C@H]3O[C@@H](n4cnc5c(N)ncnc54)[C@H](O)[C@@H]3O)[C@@H](O)[C@H]2O)C=CC1 [NADH]
– | 18 ± 3 | NC(=O)C1=CN([C@@H]2O[C@H](COP(=O)(O)OP(=O)(O)OC[C@H]3O[C@@H](n4cnc5c(N)ncnc54)[C@H](OP(=O)(O)O)[C@@H]3O)[C@@H](O)[C@H]2O)C=CC1 [NADPH]
